target: human adenosine A2b receptor (Homo sapiens (Human), UniProt P29275); experiment: Cellular in vitro reporter gene test for A2b receptor activity (CHO-K1, CRE-luciferase, NECA stimulation); assay type: cell-based; details: recombinant CHO-K1 cell line, CRE-luciferase reporter, antagonism of EC50 concentration of NECA; in some cases means of several determinations, rounded to two significant figures; read-out: A2b receptor IC50
Outline: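 CHO-K1 cells with CRE-driven luciferase; antagonists co-incubated with NECA at its EC50, determined in a pre-experiment on each test day. Luciferase read by luminescence 3 h after NECA addition.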

Chain of human adenosine A2b receptor (P29275 whole entry): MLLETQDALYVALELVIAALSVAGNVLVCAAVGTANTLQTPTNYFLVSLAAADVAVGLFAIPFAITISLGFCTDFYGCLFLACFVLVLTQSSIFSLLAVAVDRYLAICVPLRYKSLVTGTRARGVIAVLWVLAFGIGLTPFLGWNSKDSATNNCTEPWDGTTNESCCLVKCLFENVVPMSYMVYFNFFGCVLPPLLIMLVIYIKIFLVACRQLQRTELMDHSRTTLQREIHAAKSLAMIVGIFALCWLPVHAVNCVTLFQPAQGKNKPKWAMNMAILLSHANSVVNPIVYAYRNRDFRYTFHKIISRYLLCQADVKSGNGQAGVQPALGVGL

Row | Compound | IC50
1 | COC(=O)N=C1NCCN1Cc1sc2c(c1C)c(=O)n(C(C)C)c(=O)n2CC1CCO1 (single isomer, unassigned) [Example 457, Methyl [1-{[3-isopropyl-5-methyl-1-(oxetan-2-ylmethyl)-2,4-dioxo-1,2,3,4-tetrahydrothieno[2,3-d]pyrimidin-6-yl]methyl}imidazolidin-2-ylidene]carbamate] | 7.1 nM
2 | COC(=O)N=C1NCCN1Cc1sc2c(c1C)c(=O)n(C(C)C)c(=O)n2CC1CCO1 (single isomer, unassigned) [Example 458, Methyl [1-{[3-isopropyl-5-methyl-1-(oxetan-2-ylmethyl)-2,4-dioxo-1,2,3,4-tetrahydrothieno[2,3-d]pyrimidin-6-yl]methyl}imidazolidin-2-ylidene]carbamate] | 34 nM
3 | COC(=O)N=C1NCCN1Cc1sc2c(c1C)c(=O)n(C(C)C)c(=O)n2CC1CCCO1 (single isomer, unassigned) [Example 459, Methyl [1-{[3-isopropyl-5-methyl-2,4-dioxo-1-(tetrahydrofuran-2-ylmethyl)-1,2,3,4-tetrahydrothieno[2,3-d]pyrimidin-6-yl]methyl}imidazolidin-2-ylidene]carbamate] | 4.9 nM
4 | COC(=O)N=C1NCCN1Cc1sc2c(c1C)c(=O)n(C(C)C)c(=O)n2CC1CCCO1 (single isomer, unassigned) [Example 460, Methyl [1-{[3-isopropyl-5-methyl-2,4-dioxo-1-(tetrahydrofuran-2-ylmethyl)-1,2,3,4-tetrahydrothieno[2,3-d]pyrimidin-6-yl]methyl}imidazolidin-2-ylidene]carbamate] | 22 nM
5 | COC(=O)N=C1NCCN1Cc1sc2c(c1C)c(=O)n(CC(C)(C)C)c(=O)n2CC1CCCO1 (single isomer, unassigned) [Example 464, Methyl [1-{[3-(2,2-dimethylpropyl)-5-methyl-2,4-dioxo-1-(tetrahydrofuran-2-ylmethyl)-1,2,3,4-tetrahydrothieno[2,3-d]pyrimidin-6-yl]methyl}imidazolidin-2-ylidene]carbamate] | 9.9 nM
6 | COC(=O)N=C1NCCN1Cc1sc2c(c1C)c(=O)n(CC(C)(C)C)c(=O)n2CC1CCCO1 (single isomer, unassigned) [Example 465, Methyl [1-{[3-(2,2-dimethylpropyl)-5-methyl-2,4-dioxo-1-(tetrahydrofuran-2-ylmethyl)-1,2,3,4-tetrahydrothieno[2,3-d]pyrimidin-6-yl]methyl}imidazolidin-2-ylidene]carbamate] | 13 nM
7 | COC(=O)N=C1NCCN1Cc1sc2c(c1C)c(=O)n(CC(F)(F)F)c(=O)n2CC1CCCO1 (single isomer, unassigned) [Example 468, Methyl [1-{[5-methyl-2,4-dioxo-1-(tetrahydrofuran-2-ylmethyl)-3-(2,2,2-trifluoroethyl)-1,2,3,4-tetrahydrothieno[2,3-d]pyrimidin-6-yl]methyl}imidazolidin-2-ylidene]carbamate] | 6.1 nM
8 | COC(=O)N=C1NCCN1Cc1sc2c(c1C)c(=O)n(CC(F)(F)F)c(=O)n2CC1CCCO1 (single isomer, unassigned) [Example 469, Methyl [1-{[5-methyl-2,4-dioxo-1-(tetrahydrofuran-2-ylmethyl)-3-(2,2,2-trifluoroethyl)-1,2,3,4-tetrahydrothieno[2,3-d]pyrimidin-6-yl]methyl}imidazolidin-2-ylidene]carbamate] | 8.8 nM
9 | CCn1c(=O)c2c(C)c(CN3CCNC(=O)C3=O)sc2n(CC2CCCO2)c1=O (single isomer, unassigned) [Example 476, 6-[(2,3-Dioxopiperazin-1-yl)methyl]-3-ethyl-5-methyl-1-(tetrahydrofuran-2-ylmethyl)thieno[2,3-d]pyrimidine-2,4(1H,3H)-dione] | 140 nM
10 | CCn1c(=O)c2c(C)c(CN3CCNC(=O)C3=O)sc2n(CC2CCCO2)c1=O (single isomer, unassigned) [Example 477, 6-[(2,3-Dioxopiperazin-1-yl)methyl]-3-ethyl-5-methyl-1-(tetrahydrofuran-2-ylmethyl)thieno[2,3-d]pyrimidine-2,4(1H,3H)-dione] | 270 nM
11 | Cc1c(CN2CCNC(=O)C2=O)sc2c1c(=O)n(C(C)C)c(=O)n2CC1CCCO1 (single isomer, unassigned) [Example 481, 6-[(2,3-Dioxopiperazin-1-yl)methyl]-3-isopropyl-5-methyl-1-(tetrahydrofuran-2-ylmethyl)thieno[2,3-d]pyrimidine-2,4(1H,3H)-dione] | 140 nM
12 | Cc1c(CN2CCNC(=O)C2=O)sc2c1c(=O)n(C(C)C)c(=O)n2CC1CCCO1 (single isomer, unassigned) [Example 482, 6-[(2,3-Dioxopiperazin-1-yl)methyl]-3-isopropyl-5-methyl-1-(tetrahydrofuran-2-ylmethyl)thieno[2,3-d]pyrimidine-2,4(1H,3H)-dione] | 410 nM
13 | Cc1c(CN2CCNC(=O)C2=O)sc2c1c(=O)n(CC(C)(C)C)c(=O)n2CC1CCCO1 (single isomer, unassigned) [Example 484, 3-(2,2-Dimethylpropyl)-6-[(2,3-dioxopiperazin-1-yl)methyl]-5-methyl-1-(tetrahydrofuran-2-ylmethyl)thieno[2,3-d]pyrimidine-2,4(1H,3H)-dione] | 67 nM
14 | Cc1c(CN2CCNC(=O)C2=O)sc2c1c(=O)n(CC(C)(C)C)c(=O)n2CC1CCCO1 (single isomer, unassigned) [Example 485, 3-(2,2-Dimethylpropyl)-6-[(2,3-dioxopiperazin-1-yl)methyl]-5-methyl-1-(tetrahydrofuran-2-ylmethyl)thieno[2,3-d]pyrimidine-2,4(1H,3H)-dione] | 52 nM
15 | Cc1c(CN2CCNC(=O)C2=O)sc2c1c(=O)n(CC(F)(F)F)c(=O)n2CC1CCCO1 (single isomer, unassigned) [Example 488, 6-[(2,3-Dioxopiperazin-1-yl)methyl]-5-methyl-1-(tetrahydrofuran-2-ylmethyl)-3-(2,2,2-trifluoroethyl)thieno[2,3-d]pyrimidine-2,4(1H,3H)-dione] | 68 nM
16 | Cc1c(CN2CCNC(=O)C2=O)sc2c1c(=O)n(CC(F)(F)F)c(=O)n2CC1CCCO1 (single isomer, unassigned) [Example 489, 6-[(2,3-Dioxopiperazin-1-yl)methyl]-5-methyl-1-(tetrahydrofuran-2-ylmethyl)-3-(2,2,2-trifluoroethyl)thieno[2,3-d]pyrimidine-2,4(1H,3H)-dione] | 27 nM

More lines, now with the values ahead:

Row | IC50 | Compound
17 | 3.6 nM | COC(C)Cn1c(=O)c2c(C)c(CN3CCNC3=NC#N)sc2n(CCC(F)(F)F)c1=O (single isomer, unassigned) [Example 455, [1-{[3-(2-Methoxypropyl)-5-methyl-2,4-dioxo-1-(3,3,3-trifluoropropyl)-1,2,3,4-tetrahydrothieno[2,3-d]pyrimidin-6-yl]methyl}imidazolidin-2-ylidene]cyanamide]
18 | 15 nM | COC(C)Cn1c(=O)c2c(C)c(CN3CCNC3=NC#N)sc2n(CCC(F)(F)F)c1=O (single isomer, unassigned) [Example 456, [1-{[3-(2-Methoxypropyl)-5-methyl-2,4-dioxo-1-(3,3,3-trifluoropropyl)-1,2,3,4-tetrahydrothieno[2,3-d]pyrimidin-6-yl]methyl}imidazolidin-2-ylidene]cyanamide]
19 | 6.6 nM | COC(=O)N=C1NCCN1Cc1sc2c(c1C)c(=O)n(CC(F)(F)F)c(=O)n2CC1CCO1 (single isomer, unassigned) [Example 466, Methyl [1-{[5-methyl-1-(oxetan-2-ylmethyl)-2,4-dioxo-3-(2,2,2-trifluoroethyl)-1,2,3,4-tetrahydrothieno[2,3-d]pyrimidin-6-yl]methyl}imidazolidin-2-ylidene]carbamate]
20 | 30 nM | COC(=O)N=C1NCCN1Cc1sc2c(c1C)c(=O)n(CC(F)(F)F)c(=O)n2CC1CCO1 (single isomer, unassigned) [Example 467, Methyl [1-{[5-methyl-1-(oxetan-2-ylmethyl)-2,4-dioxo-3-(2,2,2-trifluoroethyl)-1,2,3,4-tetrahydrothieno[2,3-d]pyrimidin-6-yl]methyl}imidazolidin-2-ylidene]carbamate]
21 | 3.4 nM | COC(=O)N=C1NCCN1Cc1sc2c(c1C)c(=O)n(CC(C)OC)c(=O)n2CCC(F)(F)F (single isomer, unassigned) [Example 473, Methyl [1-{[3-(2-methoxypropyl)-5-methyl-2,4-dioxo-1-(3,3,3-trifluoropropyl)-1,2,3,4-tetrahydrothieno[2,3-d]pyrimidin-6-yl]methyl}imidazolidin-2-ylidene]carbamate]
22 | 5.6 nM | COC(=O)N=C1NCCN1Cc1sc2c(c1C)c(=O)n(CC(C)OC)c(=O)n2CCC(F)(F)F (single isomer, unassigned) [Example 474, Methyl [1-{[3-(2-methoxypropyl)-5-methyl-2,4-dioxo-1-(3,3,3-trifluoropropyl)-1,2,3,4-tetrahydrothieno[2,3-d]pyrimidin-6-yl]methyl}imidazolidin-2-ylidene]carbamate]
23 | 20 nM | COC(C)Cn1c(=O)c2c(C)c(CN3CCNC(=O)C3=O)sc2n(CCC(F)(F)F)c1=O (single isomer, unassigned) [Example 494, 6-[(2,3-Dioxopiperazin-1-yl)methyl]-3-(2-methoxypropyl)-5-methyl-1-(3,3,3-trifluoropropyl)thieno[2,3-d]pyrimidine-2,4(1H,3H)-dione]
24 | 57 nM | COC(C)Cn1c(=O)c2c(C)c(CN3CCNC(=O)C3=O)sc2n(CCC(F)(F)F)c1=O (single isomer, unassigned) [Example 495, 6-[(2,3-Dioxopiperazin-1-yl)methyl]-3-(2-methoxypropyl)-5-methyl-1-(3,3,3-trifluoropropyl)thieno[2,3-d]pyrimidine-2,4(1H,3H)-dione]
25 | 79 nM | COCCn1c(=O)n(C(C)C(F)(F)F)c(=O)c2c(C)c(CN3CCNC3=O)sc21 (single isomer, unassigned) [Example 498, 1-(2-Methoxyethyl)-5-methyl-6-[(2-oxoimidazolidin-1-yl)methyl]-3-(1,1,1-trifluoropropan-2-yl)thieno[2,3-d]pyrimidine-2,4(1H,3H)-dione]

From patent US10428083B2, “Heterocyclylmethyl-thienouracile as antagonists of the adenosine-A2B-receptor” (BAYER PHARMA AKTIENGESELLSCHAFT, priority 2015, dated 2019)
